Assay: excess molar enthalpy (molar enthalpy of mixing); xn = mol fraction of the nth substance listed
Settings: Liquid, Flow calorimetry

COC(C)=O [methyl ethanoate] + CCCCO
excess molar enthalpy [kcal/mol]
Settings	5000 kPa	10000 kPa
298.15 K, x1 = 0.05	0.0776	0.077
298.15 K, x1 = 0.1	0.145	0.144
298.15 K, x1 = 0.149	0.201	0.2
298.15 K, x1 = 0.199	0.248	–
298.15 K, x1 = 0.201	–	0.249
298.15 K, x1 = 0.249	0.287	–
298.15 K, x1 = 0.251	–	0.288
298.15 K, x1 = 0.3	0.32	0.318
298.15 K, x1 = 0.349	0.343	–
298.15 K, x1 = 0.351	–	0.343
298.15 K, x1 = 0.399	0.359	–
298.15 K, x1 = 0.401	–	0.36
298.15 K, x1 = 0.449	–	0.369
298.15 K, x1 = 0.45	0.37	–
298.15 K, x1 = 0.5	–	0.372
298.15 K, x1 = 0.501	0.372	–
298.15 K, x1 = 0.549	–	0.368
298.15 K, x1 = 0.55	0.368	–
298.15 K, x1 = 0.599	–	0.358
298.15 K, x1 = 0.6	0.359	–
298.15 K, x1 = 0.65	–	0.34
298.15 K, x1 = 0.651	0.341	–
298.15 K, x1 = 0.699	0.316	–
298.15 K, x1 = 0.701	–	0.314
298.15 K, x1 = 0.751	0.284	0.284
298.15 K, x1 = 0.8	–	0.244
298.15 K, x1 = 0.801	0.244	–
298.15 K, x1 = 0.851	0.194	0.196
298.15 K, x1 = 0.899	0.141	0.141
298.15 K, x1 = 0.951	0.0726	0.0726
308.15 K, x1 = 0.047	–	0.0732
308.15 K, x1 = 0.098	–	0.147
308.15 K, x1 = 0.146	–	0.208
308.15 K, x1 = 0.193	–	0.257
308.15 K, x1 = 0.243	–	0.301
308.15 K, x1 = 0.291	–	0.335
308.15 K, x1 = 0.343	–	0.363
308.15 K, x1 = 0.39	–	0.382
308.15 K, x1 = 0.44	–	0.395
308.15 K, x1 = 0.492	–	0.398
308.15 K, x1 = 0.541	–	0.396
308.15 K, x1 = 0.591	–	0.385
308.15 K, x1 = 0.641	–	0.369
308.15 K, x1 = 0.692	–	0.344
308.15 K, x1 = 0.744	–	0.309
308.15 K, x1 = 0.794	–	0.267
308.15 K, x1 = 0.896	–	0.158
308.15 K, x1 = 0.947	–	0.0845

COC(C)=O [methyl ethanoate] + CC(C)O
excess molar enthalpy [kcal/mol]
Settings	5000 kPa	10000 kPa
298.15 K, x1 = 0.1	0.133	0.132
298.15 K, x1 = 0.151	0.19	0.19
298.15 K, x1 = 0.199	0.235	–
298.15 K, x1 = 0.201	–	0.238
298.15 K, x1 = 0.249	0.276	–
298.15 K, x1 = 0.251	–	0.278
298.15 K, x1 = 0.299	0.308	–
298.15 K, x1 = 0.301	–	0.31
298.15 K, x1 = 0.349	0.334	–
298.15 K, x1 = 0.351	–	0.335
298.15 K, x1 = 0.4	–	0.354
298.15 K, x1 = 0.401	0.355	–
298.15 K, x1 = 0.45	0.367	0.366
298.15 K, x1 = 0.499	0.374	–
298.15 K, x1 = 0.501	–	0.372
298.15 K, x1 = 0.55	0.374	0.371
298.15 K, x1 = 0.599	0.367	–
298.15 K, x1 = 0.601	–	0.363
298.15 K, x1 = 0.649	0.352	–
298.15 K, x1 = 0.651	–	0.348
298.15 K, x1 = 0.699	–	0.327
298.15 K, x1 = 0.7	0.331	–
298.15 K, x1 = 0.749	–	0.296
298.15 K, x1 = 0.75	0.3	–
298.15 K, x1 = 0.799	0.262	0.258
298.15 K, x1 = 0.851	0.211	0.207
298.15 K, x1 = 0.9	0.154	0.15
298.15 K, x1 = 0.949	0.0855	0.081
308.15 K, x1 = 0.048	–	0.0745
308.15 K, x1 = 0.097	–	0.142
308.15 K, x1 = 0.145	–	0.199
308.15 K, x1 = 0.195	–	0.251
308.15 K, x1 = 0.243	–	0.293
308.15 K, x1 = 0.293	–	0.329
308.15 K, x1 = 0.342	–	0.357
308.15 K, x1 = 0.392	–	0.379
308.15 K, x1 = 0.441	–	0.393
308.15 K, x1 = 0.49	–	0.4
308.15 K, x1 = 0.541	–	0.4
308.15 K, x1 = 0.592	–	0.392
308.15 K, x1 = 0.643	–	0.376
308.15 K, x1 = 0.693	–	0.354
308.15 K, x1 = 0.743	–	0.324
308.15 K, x1 = 0.793	–	0.283
308.15 K, x1 = 0.897	–	0.169
308.15 K, x1 = 0.949	–	0.0908

— the NIST ThermoML archive (doi:10.1021/je050175u)
